Drawing on the supplement of paper PMC12137928, this text covers IC50 cell viability for 26 molecules.

Structures can show the parent of a compound that is named as a salt. A value given as a limit tells only on which side of the number the result lay.

This test deals with HCT116. The following applies: 72 h. The procedure, abridged: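 HCT116 cells were plated at 250 per well in 1536-well plates and allowed 5 h to attach. CellTiter-Glo luminescence was normalized to vehicle as 0% and positive control as -100%, followed by pattern correction. Four-parameter Hill fits provided IC50 and maximal efficacy.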

For `CCOC(=O)c1cnc2cc(OCC(C)C)c(OCC(C)C)cc2c1O` [Buquinolate], the IC50 cell viability reads like this: (ICRF193 0 nM) above 45.8 µM; (ICRF193 200 nM) above 45.8 µM.
`O=C1CC2(CCCC2)CC(=O)N1CCCCN1CCN(c2ncccn2)CC1` [Buspirone] came in with an IC50 cell viability (ICRF193 0 nM) above 45.8 µM and an IC50 cell viability (ICRF193 200 nM) above 45.8 µM.
`CS(=O)(=O)OCCCCOS(C)(=O)=O` [Busulfan]: the IC50 cell viability by setting is: (ICRF193 0 nM) above 45.8 µM; (ICRF193 200 nM) above 45.8 µM.
For the molecule `CCCCN(CCCC)CCCOC(=O)c1ccc(N)cc1` [Butacaine], the IC50 cell viability is above 45.8 µM (ICRF193 0 nM) and above 45.8 µM (ICRF193 200 nM).
`CC(C)C(=O)Nc1cccc(C2CN3CCSC3=N2)c1` (configuration not stated) [Butamisole]: the IC50 cell viability was above 45.8 µM (ICRF193 0 nM) and above 45.8 µM (ICRF193 200 nM).
Take `O=C(O)CCC(=O)O` [Butanedioic acid]: the IC50 cell viability reads like this: (ICRF193 0 nM) above 45.8 µM; (ICRF193 200 nM) above 45.8 µM.
For `CN(Cc1ccc(C(C)(C)C)cc1)Cc1cccc2ccccc12` [Butenafine], the IC50 cell viability by setting is: (ICRF193 0 nM) above 45.8 µM; (ICRF193 200 nM) above 45.8 µM.
`CCCCC(CC)CNC(=O)CC(C)OC(=O)CCC(=O)O` (configuration not stated) [Butoctamide semisuccinate]: the IC50 cell viability is above 45.8 µM (ICRF193 0 nM) and above 45.8 µM (ICRF193 200 nM).
As for `CCCC(=O)OC(C(Cl)(Cl)Cl)P(=O)(OC)OC` (configuration not stated) [Butonate], the IC50 cell viability is, setting by setting: (ICRF193 0 nM) above 45.8 µM; (ICRF193 200 nM) above 45.8 µM.
With `CCCCOc1ccc(C[N+]2(C)[C@@H]3CC[C@H]2C[C@H](OC(=O)C(CO)c2ccccc2)C3)cc1` (some centres not stated) [Butropium Bromide], the IC50 cell viability is, setting by setting: (ICRF193 0 nM) above 45.8 µM; (ICRF193 200 nM) above 45.8 µM.
With `CCCCOC(=O)c1ccc(N)cc1` [Butyl 4-aminobenzoate], the IC50 cell viability by setting is: (ICRF193 0 nM) above 45.8 µM; (ICRF193 200 nM) above 45.8 µM.
Consider `CCCCOC(=O)c1ccc(O)cc1` [Butylparaben], for which the IC50 cell viability runs as follows: (ICRF193 0 nM) above 45.8 µM; (ICRF193 200 nM) above 45.8 µM.
Regarding `CCCC[N+]1(C)[C@@H]2C[C@@H](OC(=O)[C@H](CO)c3ccccc3)C[C@H]1[C@@H]1O[C@@H]12` (some centres not stated) [Butylscopolamine bromide], the IC50 cell viability is above 45.8 µM (ICRF193 0 nM) and above 45.8 µM (ICRF193 200 nM).
In turn, `Cc1ccccc1/N=N/c1ccc(/N=N/c2c(O)ccc3ccccc23)c(C)c1` [C.I. Solvent Red 24] yielded an IC50 cell viability (ICRF193 0 nM) above 45.8 µM and an IC50 cell viability (ICRF193 200 nM) above 45.8 µM.
In the case of `O=C([O-])C(O)[C@H](O)[C@@H](O)[C@H](O)[C@H](O)CO.O=C([O-])C(O)[C@H](O)[C@@H](O)[C@H](O)[C@H](O)CO.[Ca+2]` (some centres not stated) [CALCIUM GLUCEPTATE], the IC50 cell viability is above 45.8 µM (ICRF193 0 nM) and above 45.8 µM (ICRF193 200 nM).
Regarding `COC(=S)NCCn1c([N+](=O)[O-])cnc1C` [CARNIDAZOLE], the IC50 cell viability reads like this: (ICRF193 0 nM) above 45.8 µM; (ICRF193 200 nM) above 45.8 µM.
In the case of `N[C@@H](C(=O)N[C@@H]1C(=O)N2C(C(=O)O)=C(Cl)CS[C@H]12)c1ccccc1` [CEFACLOR], the IC50 cell viability is above 45.8 µM (ICRF193 0 nM) and above 45.8 µM (ICRF193 200 nM).
In the case of `Cn1nnnc1SCC1=C(C(=O)O)N2C(=O)[C@@H](NC(=O)[C@H](O)c3ccccc3)[C@H]2SC1` [CEFAMANDOLE SODIUM], the IC50 cell viability by setting is: (ICRF193 0 nM) above 45.8 µM; (ICRF193 200 nM) above 45.8 µM.
`CO/N=C(\C(=O)N[C@@H]1C(=O)N2C(C(=O)O)=C(C[N+]3(C)CCCC3)CS[C@H]12)c1csc(N)n1` [CEFEPIME HYDROCHLORIDE]: the IC50 cell viability (ICRF193 0 nM) is above 45.8 µM and the IC50 cell viability (ICRF193 200 nM) is above 45.8 µM.
Consider `CO/N=C(\C(=O)N[C@@H]1C(=O)N2C(C(=O)O)=C(CSc3nnnn3C)CS[C@H]12)c1csc(N)n1` [CEFMENOXIME HYDROCHLORIDE], for which the IC50 cell viability runs as follows: (ICRF193 0 nM) above 45.8 µM; (ICRF193 200 nM) above 45.8 µM.
On to `CO[C@@]1(NC(=O)C2SC(=C(C(N)=O)C(=O)O)S2)C(=O)N2C(C(=O)O)=C(CSc3nnnn3C)CS[C@@H]21` (some centres not stated) [CEFOTETAN], for which the IC50 cell viability reads like this: (ICRF193 0 nM) above 45.8 µM; (ICRF193 200 nM) above 45.8 µM.
`COCC1=C(C(=O)OC(C)OC(=O)OC(C)C)N2C(=O)[C@@H](NC(=O)/C(=N\OC)c3csc(N)n3)[C@H]2SC1` (some centres not stated) [CEFPODOXIME PROXETIL]: the IC50 cell viability runs as follows: (ICRF193 0 nM) above 45.8 µM; (ICRF193 200 nM) above 45.8 µM.
For the molecule `COCC1=C(C(=O)O)N2C(=O)[C@@H](NC(=O)/C(=N\OC)c3csc(N)n3)[C@H]2SC1` [CEFPODOXIME], the IC50 cell viability was above 45.8 µM (ICRF193 0 nM) and above 45.8 µM (ICRF193 200 nM).
As for `Nc1nc(/C(=C/CC(=O)O)C(=O)N[C@@H]2C(=O)N3C(C(=O)O)=CCS[C@H]23)cs1` [CEFTIBUTEN], the IC50 cell viability reads like this: (ICRF193 0 nM) above 45.8 µM; (ICRF193 200 nM) above 45.8 µM.
Regarding `CO/N=C(\C(=O)N[C@@H]1C(=O)N2C(C(=O)O)=C(CSC(=O)c3ccco3)CS[C@H]12)c1csc(N)n1` [CEFTIOFUR HYDROCHLORIDE], the IC50 cell viability reads like this: (ICRF193 0 nM) above 45.8 µM; (ICRF193 200 nM) above 45.8 µM.
As to `Cc1oc(=O)oc1COC(=O)N1CC[C@@H](N2CC/C(=C\C3=C(C(=O)O)N4C(=O)[C@@H](NC(=O)/C(=N/O)c5nsc(N)n5)[C@H]4SC3)C2=O)C1` [CEFTOBIPROLE MEDOCARIL SODIUM], the IC50 cell viability is above 45.8 µM (ICRF193 0 nM) and above 45.8 µM (ICRF193 200 nM).
